Measurements: patent US20110092487A1, “NOVEL 3,8-DIAZA-BICYCLO[3.2.1]OCTANE-AND 3,9-DIAZA-BICYCLO[3.3.1]-NONANE-3-CARBOXYLIC ACID ESTER DERIVATIVES AND THEIR USE AS MONOAMINE NEUROT[…]-UPTAKE INHIBITORS” (NeuroSearch A/S, priority 2008, published 2011)
pIC50: −log10 of the molar value.

Experiments:
Assay type in all cases: biochemical
[1] = molecular target: T1, serotonine (5-HT) reuptake in synaptosomes (Rattus norvegicus, UniProt P31652); experiment: Inhibition of 5-HT reuptake in synaptosomes; conditions: 3H-5-HT, read-out: 5-HT-uptake IC50
T1 construct: in synaptosomes as described in WO 97/16451 (NeuroSearch A/S); from tissue
From the text: (§1) Compounds of the invention may be tested for their ability to inhibit reuptake of the monoamines dopamine, noradrenaline and serotonin in synaptosomes e.g. such as described in WO 97/30997 (NeuroSearch NS) or WO 97/16451 (NeuroSearch NS). Based on the balanced activity observed in these tests the compound of the invention is considered useful for the treatment, prevention or alleviation of a disease or a disorder or a condition of a mammal, including a human, which disease, disorder or condition is responsive to inhibition of monoamine neurotransmitter re-uptake in the central nervous system.
(§2) Compounds were tested for their ability to inhibit the reuptake of the monoamine neurotransmitters dopamine (DA) noradrenaline (NA) and serotonine (5-HT) in synaptosomes as described in WO 97/16451 (NeuroSearch A/S).
(§3) The test values are given as IC50 (the concentration (μM) of the test substance which inhibits the specific binding of ^3H-DA, ^3H-NA, or ^3H-5-HT by 50%).

[2] = molecular target: T2, dopamine (DA) reuptake in synaptosomes (Rattus norvegicus, UniProt P23977); experiment: Inhibition of DA reuptake in synaptosomes; conditions: 3H-DA, read-out: DA-uptake IC50
T2 construct: in synaptosomes as described in WO 97/16451 (NeuroSearch A/S); from tissue
From the text: as §1, §2, §3

[3] = molecular target: T3, noradrenaline (NA) reuptake in synaptosomes (Rattus norvegicus, UniProt Q63380); experiment: Inhibition of NA reuptake in synaptosomes; conditions: 3H-NA, read-out: NA-uptake IC50
T3 construct: in synaptosomes as described in WO 97/16451 (NeuroSearch A/S); from tissue
From the text: as §1, §2, §3

T3 sequence (Q63380 1-617): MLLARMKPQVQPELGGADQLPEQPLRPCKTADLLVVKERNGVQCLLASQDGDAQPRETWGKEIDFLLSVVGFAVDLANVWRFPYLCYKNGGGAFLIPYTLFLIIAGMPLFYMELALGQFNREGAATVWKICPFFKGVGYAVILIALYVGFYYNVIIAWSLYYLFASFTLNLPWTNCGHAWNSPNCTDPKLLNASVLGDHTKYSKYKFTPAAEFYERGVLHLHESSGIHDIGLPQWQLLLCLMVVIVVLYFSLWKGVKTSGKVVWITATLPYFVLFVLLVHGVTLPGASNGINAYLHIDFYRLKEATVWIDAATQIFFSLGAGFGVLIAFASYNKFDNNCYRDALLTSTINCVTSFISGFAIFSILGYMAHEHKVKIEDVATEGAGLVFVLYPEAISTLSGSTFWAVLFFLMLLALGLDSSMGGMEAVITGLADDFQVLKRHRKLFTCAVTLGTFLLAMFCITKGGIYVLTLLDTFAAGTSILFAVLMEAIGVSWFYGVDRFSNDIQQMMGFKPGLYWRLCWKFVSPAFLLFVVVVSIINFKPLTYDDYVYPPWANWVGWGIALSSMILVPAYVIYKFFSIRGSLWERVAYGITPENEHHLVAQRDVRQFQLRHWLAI
T2 sequence (P23977 whole entry): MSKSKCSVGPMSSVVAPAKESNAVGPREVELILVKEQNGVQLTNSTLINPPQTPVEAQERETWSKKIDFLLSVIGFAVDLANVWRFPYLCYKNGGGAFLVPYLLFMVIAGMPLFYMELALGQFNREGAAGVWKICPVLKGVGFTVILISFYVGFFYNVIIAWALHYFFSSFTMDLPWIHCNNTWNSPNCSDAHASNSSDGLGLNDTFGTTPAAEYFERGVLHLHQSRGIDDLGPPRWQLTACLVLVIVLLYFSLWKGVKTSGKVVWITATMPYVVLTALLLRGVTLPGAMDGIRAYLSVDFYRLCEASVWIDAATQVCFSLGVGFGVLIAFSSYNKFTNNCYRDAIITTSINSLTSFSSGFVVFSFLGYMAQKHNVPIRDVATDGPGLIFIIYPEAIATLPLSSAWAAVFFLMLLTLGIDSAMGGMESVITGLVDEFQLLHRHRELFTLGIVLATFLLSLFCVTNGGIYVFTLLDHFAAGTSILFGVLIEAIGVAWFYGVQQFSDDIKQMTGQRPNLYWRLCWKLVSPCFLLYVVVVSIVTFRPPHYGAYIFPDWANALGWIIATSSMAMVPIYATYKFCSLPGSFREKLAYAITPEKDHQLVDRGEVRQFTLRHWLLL
T1 sequence (P31652 whole entry): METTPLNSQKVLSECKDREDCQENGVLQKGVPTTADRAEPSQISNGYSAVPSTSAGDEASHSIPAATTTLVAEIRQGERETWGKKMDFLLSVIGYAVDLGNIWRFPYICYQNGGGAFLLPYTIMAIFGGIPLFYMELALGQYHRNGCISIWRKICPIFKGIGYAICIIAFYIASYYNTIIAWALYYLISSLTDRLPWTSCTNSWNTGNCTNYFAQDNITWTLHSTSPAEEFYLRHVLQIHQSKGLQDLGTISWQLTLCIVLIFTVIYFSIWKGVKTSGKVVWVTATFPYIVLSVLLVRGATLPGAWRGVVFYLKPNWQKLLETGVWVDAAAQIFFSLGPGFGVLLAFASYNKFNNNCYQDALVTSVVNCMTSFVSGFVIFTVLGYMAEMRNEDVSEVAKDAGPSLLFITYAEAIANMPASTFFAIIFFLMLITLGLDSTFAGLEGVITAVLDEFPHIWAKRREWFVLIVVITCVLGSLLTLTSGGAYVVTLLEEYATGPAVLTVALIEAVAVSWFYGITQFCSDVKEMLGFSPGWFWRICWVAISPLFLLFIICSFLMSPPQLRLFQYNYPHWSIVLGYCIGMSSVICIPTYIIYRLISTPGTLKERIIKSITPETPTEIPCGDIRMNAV

| Structure (SMILES) | pIC50 [1] | pIC50 [2] | pIC50 [3] |
| --- | --- | --- | --- |
| O=C(Oc1ccc2ccc(=O)oc2c1)N1CC2CCC(C1)N2 [3,8-Diaza-bicyclo[3.2.1]octane-3-carboxylic acid 2-oxo-2H-chromen-7-yl ester] | 7.57 | 7.04 | 6.21 |
| O=C(Oc1ccc(Cl)c(Cl)c1)N1CC2CCCC(C1)N2 [3,9-Diaza-bicyclo[3.3.1]nonane-3-carboxylic acid 3,4-dichloro-phenyl ester] | 8.11 | < 6.00 | 5.70 |
| CN1C2CCCC1CN(C(=O)Oc1ccc3ccc(=O)oc3c1)C2 [9-Methyl-3,9-diaza-bicyclo[3.3.1]nonane-3-carboxylic acid 2-oxo-2H-chromen-7-yl ester] | 7.40 | 6.21 | 5.80 |
| COc1ccc2cc(OC(=O)N3CC4CCCC(C3)N4C)ccc2c1 [9-Methyl-3,9-diaza-bicyclo[3.3.1]nonane-3-carboxylic acid 6-methoxynaphthalen-2-yl ester] | 6.47 | 7.52 | 7.62 |
